Results: patent US20160194274A1, “PHENANTHRENE DERIVATIVES FOR USE AS MEDICAMENTS” (VALENTIA BIOPHARMA, priority 2012, published 2016)
Like-named read-outs stand apart in the source and are kept apart here.

Assays:
[1] = tested on: ribonuclear foci in MyoD transformed fibroblasts derived from DM1 patients (>300 CTG repeats); experiment: FISH detection of aberrant ribonuclear foci in human DM1 fibroblasts; assay type: cell-based; conditions: 24 h treatment, vs no treatment
Method: FIG. 1. Quantification of aberrant ribonuclear foci (DM1 disease hallmark) in human DM1 fibroblasts. Treatments with the compounds of Formula I were performed (VLT002, VLT015, VLT025, VLT024, VLT042, VLT040, VLT023, VLT026, VLT048, VLT045, VLT043, VLT049, VLT051 VLT053 and VLT056). (A) Number (medium) of foci/nuclei (No treatment vs. compound treatment). (B) Number of cells without foci (No treatment vs. compound treatment). n=100 minimum number of cells counted. T-Student test: * indicates p-value <0.05 ** p-value p<0.005 *** p-value p<0.0005.
After screening identification of the compounds of the invention (see FIG. 10), main validation was done using Fluorescence In Situ Hybridization (FISH) detection of aberrant aggregation of ribonuclear foci in cell lines from DM1 patients (see FIG. 1) and in DM1 Drosophila model (see FIG. 2) (Garcia-Lopez et al., Proc. Natl. Acad. Sci. USA. 108(29):11866-71 (2011)). Briefly, regarding human cells, it was used MyoD transformed fibroblasts derived from clinically diagnosed DM1 patients (>300 CTG repeats) routinely growing in DMEM supplemented with 10% heat-inactivated fetal bovine serum and maintained at 37° C. in a humidified incubator containing 5% CO2. To detect ribonuclear foci, cells were cultured over cover-slides in flat bottomed 24-well plates, after 24 h compounds of the invention were added to the cells at desiderate concentration, 24 h later in situ hybridization was done by fixing with 4% paraformaldehyde (PFA) 15 min at room temperature, and washed and stored in 70% ethanol. Cells were rehydrated with PBS and pre-hybridized 10 min at room temperature with a pre-hybridization buffer (formamide 30%, 2× saline-sodium citrate buffer (SSC)). Hybridization was performed in a light-proof wet chamber using the same pre-hybridization buffer supplemented with 0.02% bovine serum albumin (BSA), 1 mg/ml yeast tRNA (Sigma), 2 mM sodium (meta)vanadate, 1 mg/ml sperm DNA, 10% dextran sulfate and 1 ng/μl RNase free HPCL-purified Cy3-labeled (CAG)10 RNA. After hybridization cells were washed 2×15 minutes at 45° C. with the pre-hybridization buffer and washed with 1×PBS at room temperature. Slides were mounted with Vectashield solution with DAPI and number of foci by cell and number of cells with/without foci (see FIG. 1) were counted in a minimum of 100 cells for each treatment and concentration tested with a 63× objective in a Leica microscope. Same FISH approach was performed in Drosophila DM1 flies, where thoraces were embedded in OCT and transversal sections were taken with a Leica CM 15105 cryomicrotome. Sections were processed for in situ hybridization and counting for number of foci by cell with the same Cy3-labeled (CAG)10 probe (see FIG. 2).

(CUG)23 RNA hairpin = experiment: 2-Aminopurine fluorescence assay of hairpin RNA unfolding; assay type: biochemical; conditions: (CUG)23 RNA, dose-range
Method: FIG. 7. […] Measurements of the fluorescence emitted (Y-axis), measured as relative fluorescence units (RFU), by 2-aminopurine in a (CUG)23 RNA (1 μM) in the presence of different compounds (dose-range approach), relative to the fluorescence emitted by the free RNA. […] These effects were not observed when incubating the RNA with DMSO (not shown), or with the small molecule pentamidine, published as a compound able to disrupt MBNL1 binding to CUG hairpins (Warf M B et al. Proc. Natl. Acad. Sci. USA 106:18551-56 (2009)). * indicates p-value <0.05 ** p-value <0.005 *** p-value p<0.0005.
Aminopurine Fluorescence assay to detect hairpin double strand RNA unfolding. An aliquot of 2-aminopurine (2AP)-CUG23 RNA (1 μM in binding buffer) was heated at 90° C. for 3 min, placed on ice, and further diluted to 30 nM in a final volume of 1 mL in binding buffer.

[2] = tested on: indirect flight muscles of MHC-Gal4/+; UAS-i480CTGs/+ flies; experiment: Drosophila muscle histology (IFM muscle area); assay type: in vivo; conditions: 100 μM, adult IFM
Method: FIG. 3. Representative bright field microscopy images of transversal sections of resin-embedded adult IFM (indirect flight muscles) of MHC-Gal4/+; UAS-i480CTGs/+ flies that had been treated with DMSO (left) or with VLT024 (100 μM) (right).
Additional assays involved: • Reverse Transcription-PCR (RT-PCR) to detect levels of normal/aberrant splicing events in specific genes. This approach was performed in human cells from patients (see FIG. 5) or from DM1 mouse (see FIG. 8 up) (HSA^LR, Mankodi A et al., Science, 289:1769-1773 (2000)) tissues (skeletal muscle), from which total RNA was extracted from ˜0.5-1.5×10^5 cells using the Zygem Tissue Plus kit. Serca 1, Cypher or cTNNT genes reverse transcription were performed and quantification of normal/aberrant spliced band forms was obtained (ImageJ software) after running PCR products in 2% agarose gels. As shown in FIGS. 5 and 8 compounds of the invention are able to recover disease phenotypes. • Drosophila Muscle Histology, where five-day old Drosophila thoraces were embedded in Epon for transversal, semi-thin sectioning. Muscle area was quantified (see FIG. 3) by binarizing images (equal dimensions) and quantifying pixels (%) within muscle tissue with ImageJ software. […] A minimum of 8 flies were analyzed in each case.

FAM-(CUG)10 RNA = experiment: Gel retardation assay (fluorescence EMSA) with FAM-(CUG)10; assay type: binding
Method: FIG. 6. Study of the binding of some compounds of Formula I (VLT002, VLT025 and VLT026) to FAM-(CUG)10 (repeat tract present in DM1, HDL2, SCA8 diseases) by means of gel retardation assays.
Fluorescence Electrophoretic Mobility Shift Assay to test RNA-compound binding. Briefly, an aliquot of carboxyfluorescein (FAM)-CUG10 RNA (DM1, HDL2, SCA8; see FIG. 6) was heated at 70° C. for 5 min and diluted to 300 nM. The binding reaction with compounds was then carried out as described in (Garcia-Lopez A et al. Proc. Natl. Acad. Sci. USA. 108(29):11866-71 (2011)). The reaction mix was loaded onto 8% polyacrylamide nondenaturing gels, and electrophoresis was conducted at 4° C. in TB 1× for approximately 30 min at 240V, followed by fluorescence visualization. Quantification of the free RNA band intensity was carried out using the ImageJ software. A non-linear regression analysis was used to calculate EC50, based on a total of three experimental replicates. Same approach was developed with (FAM)-CCUG8 (DM2), CAG10 (SCA3), CGG10 (FXTAS), GGGGCC5 (ALS/FSD), UGGAA6 (SCA31) probes (see FIG. 9).

MBNL1 = experiment: Visualization and quantification of MBNL1 release in DM1 fibroblasts; assay type: cell-based, human; conditions: 100 μM
Method: FIG. 4. Visualization and quantification of MBNL1 release (A). Visualization of MBNL1 release for VLT002: Upper row: Untreated DM1 fibroblasts with MBNL1 localizing as ribonuclear foci (see dots in middle and right pictures) to the nucleus (DAPI, detected as gray spherical shadow in left and right pictures). […] (B) Quantification of the area (into the nucleus), where MBNL1 present (Photoshop software), reflects the MBNL1 release after VLT002, VLT025, VLT045, VLT049 and VLT040 treatment (100 μM).
At the same time human cells were recollected for foci counting. Some (150,000-300,000) were prepared for Muscleblind (MBNL1) detection (see FIG. 4). After PBS washes, cells were probed overnight, at 4° C. with anti-MBNL1 antibody (1:5000 dilutions, A2764 antibody) in 1×PBS. After washing cells with 1×PBS, cells were incubated with goat anti-rabbit Alexa 488 (1:500 dilution) for 2 h at RT. Cells were washed 2 times, for 10 min at room temperature with 1×PBS and then mounted onto glass slides using a hard-set mounting media that contains DAPI (Vectashield). Cells were imaged on a Leica microscope.

[3] = cited from earlier work
[4] = dose range of 5-40 mg/kg, compared to mexiletine

Structure (SMILES)	aberrant ribonuclear foci: number of foci/nuclei (A) and/or number of cells without foci (B) [1]	further results
COc1cc2c(cc1O)CC1c3c(cc(O)c(OC)c3-2)CCN1C (stereo not drawn) [VLT015]	significant reduction	–
COc1cc(CCN(C)C)c2ccc3c(c2c1OC)=CC(OC)C(OC)C=3 (stereo not drawn) [VLT023]	significant reduction	modification of the hairpin loops formed by the CUG repeats (2-AP fluorescence) ((CUG)23 RNA hairpin): modify the hairpin loops
COc1cc2ccc3c(CC[N+](C)(C)C)cc(OC)c(OC)c3c2cc1OC [VLT024]	significant reduction	muscle area relative to DMSO-treated flies [2]: significant increase
COc1cc2c(ccc3c(CCN(C)Cc4ccccc4)cc(OCc4ccccc4)c(OC)c32)cc1OCc1ccccc1 [VLT026]	significant reduction	binding to FAM-CUG10 (FAM-(CUG)10 RNA): bind to FAM-CUG10
C[N+]1(C)CCc2cc3c(c4c2c1cc1ccccc14)OCO3 [VLT042]	significant reduction	–
CC(=O)N1CCc2cc3c(c4c2C1Cc1ccccc1-4)OCO3 (stereo not drawn) [VLT043]	significant reduction	–
O=C1c2ccccc2-c2c3c(cc4ccnc1c24)OCO3 [VLT045]	significant reduction	MBNL1 sequestration / MBNL1 release (nuclear area where MBNL1 present) (MBNL1): relieve MBNL1 sequestration; formation of foci (MBNL1 ribonuclear foci) (MBNL1): effectively reduce the formation of foci
CCNC(=O)Oc1cc2c(cc1OC)-c1c(OC)c(OC(=O)NCC)cc3c1C(C2)N(C)CC3 (stereo not drawn) [VLT048]	significant reduction	–
COc1cc2c3c(c1OC)-c1ccccc1CC3N(C)CC2 (stereo not drawn) [VLT049]	significant reduction	MBNL1 sequestration / MBNL1 release (nuclear area where MBNL1 present) (MBNL1): relieve MBNL1 sequestration; formation of foci (MBNL1 ribonuclear foci) (MBNL1): effectively reduce the formation of foci
COc1cc(CC[N+](C)(C)C)c2ccc3ccccc3c2c1OC [VLT051]	significant reduction	–
C[N+](C)(C)CCc1cc(O)c(O)c2c1ccc1ccccc12 [VLT053]	significant reduction	–
CC(=O)Oc1cc2ccc3c(CCN(C)C)cc(OC(C)=O)c(OC(C)=O)c3c2cc1OC(C)=O [VLT056]	significant reduction	–
CC(C)(C)NCC(O)c1cc(Cl)c(N)c(Cl)c1 (stereo not drawn) [clenbuterol]	–	antimyotonic effect [3, 4]: time-dependent antimyotonic effect
CC(C)(C)NCC(O)COc1cccc2c1CC(O)C(O)C2 (stereo not drawn) [nadolol]	–	antimyotonic effect ([3]; in vivo): did not show any significant antimyotonic effect
N=C(N)c1ccc(OCCCCCOc2ccc(C(=N)N)cc2)cc1 [pentamidine, reference compound]	–	modification of the hairpin loops formed by the CUG repeats (2-AP fluorescence) ((CUG)23 RNA hairpin): not observed
CC(C)NCC(O)COc1cccc2ccccc12 (stereo not drawn) [propranolol]	–	antimyotonic effect [3, 4]: time-dependent antimyotonic effect
CC(C)(C)NCC(O)c1ccc(O)c(CO)c1 (stereo not drawn) [salbutamol]	–	antimyotonic effect ([3]; in vivo): did not show any significant antimyotonic effect
